Assay results taken from publication PMC8329922, “Credentialing and Pharmacologically Targeting PTP4A3 Phosphatase as a Molecular Target for Ovarian Cancer” (Biomolecules, 2021).

Key:
[1] = test system: Kuramochi; assay: Cytotoxicity, 3D spheroids, CellTiter Glo 3D; type: cell-based; conditions: Homo sapiens, 48 h exposure, read-out: EC50 (μM ± SEM) Kuramochi
[2] = test system: COV362-47R; assay: Cytotoxicity, 3D spheroids, CellTiter Glo 3D; type: cell-based; conditions: Homo sapiens, 48 h exposure, carboplatin resistant line, read-out: EC50 (μM ± SEM) COV362-47R
[3] = test system: OVCAR4; assay: Cytotoxicity, 3D spheroids, CellTiter Glo 3D; type: cell-based; conditions: Homo sapiens, OVCAR-4, 48 h exposure, read-out: EC50 (μM ± SEM) OVCAR4
[4] = test system: COV362; assay: Cytotoxicity, 3D spheroids, CellTiter Glo 3D; type: cell-based; conditions: Homo sapiens, 48 h exposure, read-out: EC50 (μM ± SEM) COV362
[5] = test system: V581; assay: Cytotoxicity, 3D spheroids, CellTiter Glo 3D; type: cell-based; conditions: Homo sapiens, 48 h exposure, patient-derived cell line, read-out: EC50 (μM ± SEM) V581
[6] = test system: OVSAHO; assay: Cytotoxicity, 3D spheroids, CellTiter Glo 3D; type: cell-based; conditions: Homo sapiens, 48 h exposure, read-out: EC50 (μM ± SEM) OVSAHO
[7] = target: T1, recombinant human PTP4A3 (Homo sapiens, UniProt O75365); assay: In vitro phosphatase inhibition (DiFMUP substrate); type: biochemical; conditions: Mean ± SEM, N = 3, * N = 6, ** N = 8; DiFMUP 12 μM, 25 °C, 30 min; read-out: in vitro IC50 against recombinant human PTP4A3
T1 construct: The cDNA for the full-length ptp4a3 was obtained from OriGene (SC308739); His6 (N); host or cells: E. coli BL21 (DE3)

[8] = test system: COV362 parent line; assay: Viability assay with 3-(4,5-dimethylthiazol-2-yl)-2,5-diphenyltetrazolium bromide; type: cell-based, human; conditions: MTT viability assay, read-out: EC50 (concentration that caused a 50% cytotoxicity)
[9] = test system: COV362-47R cells; assay: as above; type: cell-based, human; conditions: MTT viability assay, read-out: EC50 (concentration that caused a 50% cytotoxicity)

T1 sequence (O75365 whole entry): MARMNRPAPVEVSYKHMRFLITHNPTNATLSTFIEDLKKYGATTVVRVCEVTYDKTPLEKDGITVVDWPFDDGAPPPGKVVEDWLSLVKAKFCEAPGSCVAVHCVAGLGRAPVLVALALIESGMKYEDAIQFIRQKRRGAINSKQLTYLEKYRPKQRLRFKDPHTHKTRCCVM

Compound	EC50 [1] [µM]	EC50 [2] [µM]	EC50 [3] [µM]	EC50 [4] [µM]	EC50 [5] [µM]	EC50 [6] [µM]	IC50 [7] [µM]	EC50 [8] [µM]	EC50 [9] [µM]
C[C@]1(c2nc3c(C(N)=O)cccc3[nH]2)CCCN1 [Veliparib, reference compound]	> 50	> 50	> 50	> 50	> 50	> 50	–	–	–
Cc1cc2c(s1)C(=O)C(=O)NC2=O [EJR-912-50]	> 50	> 50	> 50	> 50	> 50	> 50	0.0606 ± 0.006	–	–
CN1C(=O)C(=N)c2sc(-c3ccccc3)cc2C1=O [NRT-870-59]	30.6	> 50	> 50	> 50	> 50	> 50	–	–	–
CC[C@@]1(O)C(=O)OCc2c1cc1n(c2=O)Cc2cc3c(CN(C)C)c(O)ccc3nc2-1 [Topotecan, reference compound]	–	25.3 ± 9.8	2.5 ± 0.8	2.5 ± 0.7	–	2.5 ± 1.1	–	–	–
CC(=O)O[C@H]1C(=O)[C@@]2(C)[C@H]([C@H](OC(=O)c3ccccc3)[C@]3(O)C[C@H](OC(=O)[C@H](O)[C@@H](NC(=O)c4ccccc4)c4ccccc4)C(C)=C1C3(C)C)[C@]1(OC(C)=O)CO[C@@H]1C[C@@H]2O [Paclitaxel, reference compound]	> 5	> 5	> 5	> 5	> 5	> 5	–	–	–
O=C(c1cc(Cc2n[nH]c(=O)c3ccccc23)ccc1F)N1CCN(C(=O)C2CC2)CC1 [Olaparib]	> 50	> 50	> 50	> 50	> 50	> 50	–	–	–
N.N.O=C([O-])C1(C(=O)[O-])CCC1.[Pt+2] [carboplatin]	–	–	–	–	–	–	–	~20	~200
N=C1C(=O)NC(=O)c2c(-c3ccccc3)csc21 [EJR-912-41]	7	> 50	26.9 ± 3.9	31.6 ± 6.8	> 50	38.7 ± 1.7	0.0637 ± 0.0073	–	–
Cc1cc2c(s1)C(=N)C(=O)NC2=O [EJR-912-57]	> 50	> 50	> 25	28.3 ± 3.1	> 50	> 50	0.0897 ± 0.014	–	–
O=C1NC(=O)c2c(-c3ccccc3)csc2C1=O [EJR-912-43]	> 50	> 50	> 50	> 50	> 50	> 50	0.0537 ± 0.0124	–	–
